Data set [1] in a line: Phase 1 dose-escalation study of PSMA ADC: pharmacokinetics (ELISA, LC/MS/MS). The class given is in vivo, human. The source says:
An open-label, dose-escalation phase 1 study of PSMA ADC (comprising MMAE) in patients with taxane refractory metastatic prostate cancer (metCRPC) was initiated. The objectives of the study were to (1) determine a maximum tolerated dose (MTD) for PSMA ADC administered once every 3 weeks; (2) assess the safety, tolerability, pharmacokinetics (PK) and pharmacodynamics (PD) of PSMA ADC across the dose-escalation range; (3) assess immunogenicity; and (4) assess antitumor activity. PSMA ADC in saline was administered by IV infusion Q3 W for up to 4 cycles. Subjects received either 0.4 mg/kg, 0.7 mg/kg, 1.1 mg/kg, or 1.8 mg/kg or will receive 2.0 mg/kg (at weeks 1, 4, 7 and 10).
Adverse events, PK, PSA, circulating tumor cells, clinical disease progression and immunogenic response to PSMA ADC continued to be assessed (FIGS. 19-21). Serum concentrations of PSMA ADC and total antibody were measured by an enzyme-linked immunosorbent assay (ELISA) method, and free MMAE was measured by liquid chromatography/mass spectrometry/mass spectrometry (LC/MS/MS) method. Individual patients report bone pain reduction as described below.

The subject of data set [2] is hormone-refractory prostate cancer. The following applies: cited from earlier work.
Data set [3] relates to C4-2 cells. The data set can be described thus: Single C4-2 xenograft mouse given docetaxel, then switched to PSMA ADC after relapse. The class given is in vivo, nude mouse. The method, then:
The in vivo therapeutic efficacy of PSMA ADC in a subcutaneous xenograft model of human prostate cancer was assessed. […] C4-2 is an androgen-independent human prostate cancer cell line. At day 11, the tumor size of each mouse was measured, by length and width in millimeters, using a caliper (Mitutoyo, Aurora, Ill.). The tumor volume was calculated using the following formula: Volume(mm^3)=[(Length)×(Width)^2]/2
It was given 12 doses of docetaxel, IP, at 12 mg/kg weekly. As shown in FIG. 3 and Table 2, the animal initially responded to the docetaxel treatment, the tumor volume was reduced to ˜300 mm^3 at day 60, but then it progressed to ˜800 mm^3 at day 100. The treatment of docetaxel was stopped, and PSMA ADC was given IV at 6 mg/kg for an additional 12 doses, weekly. […] PSMA ADC can treat tumors that fail docetaxel treatment.

For data set [4], the system named is C4-2 cells.
Procedure: Male athymic nude mice, 6-8 weeks old, obtained from Charles River Laboratories, Inc., were implanted with Matrigel subcutaneously into the right flank of each mouse with 5 million C4-2 cells (androgen-independent human prostate cancer cell line). At day 14, tumor size was measured by length and width in mm (millimeter). The volume was calculated using the formula: volume (mm^3)=[(length)×(width)^2]/2. […] Animals were dosed weekly through the tail vein.
When the tumor volume of an animal in the docetaxel treatment group exceeded 400 mm^3, this animal was randomized, at a 1:1 ratio, into one of the two treatment subgroups: one group continued to receive docetaxel at 2 mg/kg weekly (n=18), and the second group was switched to PSMA ADC treatment at 6 mg/kg/IV weekly (n=18). Mice whose tumors durably responded to docetaxel (≦400 mm^3) continued to receive docetaxel at 2 mg/kg/IV weekly. Treatment effects were assessed by measuring tumor volume and overall survival. Animal body weight was also measured. Animals with tumor size ≧2000 mm^3 were sacrificed.
Data set [5] relates to C4-2 cells. The data set can be described thus: C4-2 xenograft, PSMA ADC after docetaxel treatment failure (Example 3). It is filed as in vivo, athymic nude mice. The method, then: An experiment (FIG. 10) was designed to evaluate PSMA ADC effectiveness after docetaxel treatment failure. […] At day 14, animals having a tumor volume between 100-200 mm^3 were randomized (randomization #1) into two treatment arms: (1) vehicle control (PBS buffer, n=10); (2) docetaxel at 2 mg/kg/IV weekly (n=50) according to tumor volume. The mean tumor volume was 138.0 and 138.1 mm^3 for the vehicle control and docetaxel treatment groups, respectively, at randomization.
All animals then received intravenous injections of PBS or docetaxel (Sigma, St. Louis, Mo.) at 2 mg/kg via tail vein in a volume of 0.1 mL. Tumor sizes were measured twice per week after tumor implantation, and the average tumor volume for the two groups before the second randomization was initiated were plotted (FIG. 11).
Animals were randomized into these two treatment subgroups continuously over the period of 28 days to 70 days post tumor implantation. By the end of day 70, there were 28 mice whose tumor volume had exceeded 400 mm^3, with 14 mice randomized into the PSMA ADC treatment subgroup (mean tumor volume of 695 mm^3 and 14 mice randomized into the continued docetaxel treatment subgroup (mean tumor volume of 642 mm^3 with a p-value of 0.28 (student t-test)).
The effect of PSMA ADC treatment on tumor growth after docetaxel failure was assessed by comparing tumor reduction after the second randomization. […]

The structures appear in SMILES notation. Where a SMILES comes first, the peptide text is derived from it. [ ]: non-standard residue; d: D form. The star is where a group is joined. Dolaproine = CO[C@@H]([C@@H]1CCCN1)[C@@H](C)C(=O)O; Dil = CC[C@H](C)[C@H](NC)[C@@H](CC(=O)O)OC; X1 = C[C@@H](N*)[C@@H](O)c1ccccc1; NMeV = CN[C@H](C(=O)O)C(C)C

For `CC[C@H](C)[C@@H]([C@@H](CC(=O)N1CCC[C@H]1[C@H](OC)[C@@H](C)C(=O)N[C@H](C)[C@@H](O)c1ccccc1)OC)N(C)C(=O)[C@@H](NC(=O)[C@@H](NC)C(C)C)C(C)C` [MMAE, monomethylauristatin norephedrine] (H-[NMeV]V[Dil][Dolaproine]-X1), in data set [1] (after IV PSMA ADC 0.4-1.8 mg/kg), the “exposure to free MMAE versus dose” value is listed as “dose proportional”. Further, the “exposure to free MMAE relative to PSMA ADC” value in data set [1] (after IV PSMA ADC, serum, LC/MS/MS) is given as below 0.1%.
As for `CC(=O)O[C@@]12CO[C@@H]1C[C@H](O)[C@@]1(C)C(=O)[C@H](O)C3=C(C)[C@@H](OC(=O)[C@H](O)[C@@H](NC(=O)OC(C)(C)C)c4ccccc4)C[C@@](O)([C@@H](OC(=O)c4ccccc4)[C@H]21)C3(C)C` [docetaxel], in data set [2] (docetaxel (Taxotere) in combination with prednisone, advanced prostate cancer), the increase in survival was 2-3 months. Besides, in data set [2] (docetaxel in combination with prednisone), the survival benefit is listed as 2.4 month. Further, the tumor volume with C4-2 cells [3] (day 60, docetaxel IP 12 mg/kg weekly, start ~500 mm^3 at day 21) is given as around 300 mm^3; in the data set with C4-2 cells [3] (day 100, progressed on docetaxel IP 12 mg/kg weekly), around 800 mm^3. Besides, the “tumor size of individual animals after second randomization” value with C4-2 cells [4] (PSMA ADC (panel A) or continued docetaxel (panel B)) is listed as “tumors continued to progress except in one animal”. Moreover, in the data set with C4-2 cells [4] (PSMA ADC versus continued docetaxel, p<0.001), the “average body weight change post second randomization” value was “lost weight”. The “median survival post second randomization” value with C4-2 cells [4] (continued docetaxel 2 mg/kg weekly, n=18) came to 45 days. In the data set on C4-2 cells [4] (continued docetaxel treatment group, day 157 post second randomization), the “animals sacrificed due to large tumors (>2,000 mm^3)” value was 16 of 18. The “tumor volume course after second randomization (docetaxel failure, >400 mm^3)” value in the data set on C4-2 cells [5] (PSMA ADC 6 mg/kg IV weekly or continued docetaxel 2 mg/kg) is on record as “grew continuously”. Besides, in the data set on C4-2 cells [5] (docetaxel 2 mg/kg IV weekly, n=50, before second randomization, by day 21 p=0.025), the “tumor growth compared to vehicle control” value is recorded as “reduced tumor growth compared to control”.

The values above are taken from patent US9242012B2, “Methods for killing PSMA-expressing, taxane-resistant cancer cells” (PSMA Development Company, LLC, priority 2008, dated 2016).
